Test results: US20180099937A1, “NOVEL ARYL-CYANOGUANIDINE COMPOUNDS” (Bayer Pharma Aktiengesellschaft, priority 2015, published 2018)

Key:
[1] = biological target: T1, SMYD2 (Homo sapiens, UniProt Q9NRG4); test: In Cell Western (ICW) cell-based assay for detection of SMYD2 methylation activity; parameters: expressed in transfected cells; host or cells: KYSE-150 (human esophageal carcinoma, DSMZ ACC 375); details: SMYD2 overexpressing KYSE-150 cells, 72 h treatment, p53K370me1 signal normalized to DRAQ5; read-out: IC50 [mol/l] (ICW assay)
T1 sequence (Q9NRG4 whole entry): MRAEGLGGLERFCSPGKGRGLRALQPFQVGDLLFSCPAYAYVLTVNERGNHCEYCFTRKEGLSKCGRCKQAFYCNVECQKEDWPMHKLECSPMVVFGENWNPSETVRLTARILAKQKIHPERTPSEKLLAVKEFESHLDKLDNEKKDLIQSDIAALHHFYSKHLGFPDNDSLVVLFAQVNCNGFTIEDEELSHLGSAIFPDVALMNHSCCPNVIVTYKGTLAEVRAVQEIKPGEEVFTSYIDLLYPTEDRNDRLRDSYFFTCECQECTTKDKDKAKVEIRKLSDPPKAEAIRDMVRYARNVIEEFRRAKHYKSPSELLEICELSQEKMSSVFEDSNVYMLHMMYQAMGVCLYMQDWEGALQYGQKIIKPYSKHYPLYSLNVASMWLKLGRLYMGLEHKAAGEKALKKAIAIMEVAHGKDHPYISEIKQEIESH
Excerpt: 1.2 Cell-Based Assay for Detection of SMYD2 methylation Activity
For the detection of SMYD2 cellular methylation activity an In Cell Western (ICW) assay was established. This assay allows rapid processing of multiple samples for SMYD2 methylation derived immunofluorescence signals, with normalization to cell number via the use of the nucleic acid dye DRAQS. KYSE-150 cells (human esophageal carcinoma cell line; DSMZ-German Collection of Microorganisms and Cell Cultures; No: ACC 375) have been stably transfected with a construct expressing wild-type SMYD2 (NCBI Reference Sequence: NP_064582.2). To detect SMYD2-mediated methylation signals in cells, a customized antibody directed against mono-methylated lysine 370 on protein p53 (p53K370me1) was used. The polyclonal antibody was generated (Eurogentec) against a p53 peptide containing the mono-methylated K370 epitope as described elsewhere (Huang et al., Nature, 2006, 444(7119):629-32).
For conducting the ICW assay 5000 SMYD2 overexpressing KYSE-150 cells/well were seeded in 96-well plates (SIGMA) and cultivated for 24 h. As a control for maximal inhibition of ectopic methylation activity, non-transfected KYSE-150 cells were used. Cells were grown in 49% RPMI 1640 with 49% Ham's F12 media supplemented with 2% heat inactivated fetal calf serum (FCS). For determination of SMYD2 inhibitory activity, cells were treated for 72 h in the presence of compounds or with DMSO. Cells were treated with compounds to be tested at a final concentration range varying from 3.9×10^−8 to 5×10^−6 M. Media was removed and 3.7% (w/v) formaldehyde in PBS was added for 20 min. After two washes with phosphate buffered saline (PBS), 0.25% (v/v) Triton X100 in PBS was added for 15 minutes of permeabilization. After one washing step with PBS, cells were blocked for 1 h with 5% (w/v) non-fat dry milk in PBS. Fixed cells were exposed to primary […] antibody in 5% non-fat dry milk in PBS for 24 h. One row of cells on each plate was not exposed to p53K370me1 antibody and was reserved for background control measurements. The wells were washed three times with PBS, then secondary IR800 conjugated antibody (LI-COR) and DNA-intercalating dye, 5 μM DRAQ5 (LI-COR) were added for 3 h. After 5 washes with PBS, the fluorescence in each well was measured on an Odyssey (LI-COR) scanner at 800 nm (p53K370me1 signal; 764 nm excitation) and 700 nm (DRAQS signal; 683 nm excitation). Fluorescence intensity was quantified and normalized to background and DRAQ5 signals. IC50 values were calculated by fitting the normalized inhibition data to a 4-parameter logistic equation (Minimum, Maximum, IC50, Hill; Y=Max+(Min−Max)/(1+(X/IC50)Hill)) for each tested compound. For IC50 determination C0 (=no inhibition) was defined as the signal measured for DMSO treated controls. Ci (maximal inhibition) was defined as the signal measured for non SMYD2 overexpressing KYSE150 cells.

[2] = biological target: T1, SMYD2; test: Scintillation Proximity Assay (SPA) for detection of SMYD2 enzymatic inhibition; type: biochemical; parameters: The SMYD2 full length enzyme was produced in-house by expression (with an N-terminal 6× His tag) in E. coli; 6xHis (N); made in house; host or cells: E. coli; details: SMYD2 full length enzyme, p53 Peptide substrate 1.0 μM, 3H-SAM 60 nM; read-out: IC50 [mol/l] (SPA Assay)
Summary of the method: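 Full-length N-His SMYD2 from E. coli (typically 3 nM) was preincubated with compounds (0.1 nM–20 μM) for 15 min, then reacted 30 min at 22° C with 60 nM 3H-SAM and 1.0 μM biotinylated p53 peptide in Tris pH 9.0. Streptavidin SPA beads read methylation, and IC50 came from a 4-parameter fit.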

| IC50 [1] [nM] | IC50 [2] [nM] | SMILES |
| --- | --- | --- |
| 44.5 | 14.5 | CCN(C(=O)[C@H]1CCN1)C1CN(/C(=N\C#N)Nc2cccc(OC(F)F)c2)N=C1c1ccc(Cl)c(Cl)c1 (mixture of isomers) [Example 2, (2R)-N-[1-{N′-cyano-N-[3-(difluoromethoxy)phenyl]carbamimidoyl}-3-(3,4-dichlorophenyl)-4,5-dihydro-1H-pyrazol-4-yl]-N-ethylazetidine-2-carboxamide] |
| 2.6 | 4.45 | CCN(C(=O)[C@H]1CCCN1)C1CN(/C(=N\C#N)Nc2cccc(OC(F)F)c2)N=C1c1ccc(Cl)c(Cl)c1 (single isomer, unassigned) [Example 1.1, N-[1-{N′-Cyano-N-[3-(difluoromethoxy)phenyl]carbamimidoyl}-3-(3,4-dichlorphenyl)-4,5-dihydro-1H-pyrazol-4-yl]-N-ethyl-D-prolinamide] |
| 764 | 1520 | CCN(C(=O)c1cccc(=O)[nH]1)C1CN(/C(=N\C#N)Nc2cccc(OC(F)(F)F)c2)N=C1c1ccc(Cl)c(Cl)c1 (racemic) [Example 18, rac-N-[1-{N′-Cyano-N-[3-(trifluoromethoxy)phenyl]carbamimidoyl}-3-(3,4-dichlorophenyl)-4,5-dihydro-1H-pyrazol-4-yl]-N-ethyl-6-oxo-1,6-dihydropyridine-2-carboxamide] |
| 96.5 | 30.5 | CCN(C(=O)[C@H]1CCCN1)C1CN(/C(=N\C#N)Nc2ccc(F)c(OC(F)(F)F)c2)N=C1c1ccc(Cl)c(Cl)c1 (single isomer, unassigned) [Example 22.1, N-[1-{N′-Cyano-N-[4-fluoro-3-(trifluoromethoxy)phenyl]carbamimidoyl}-3-(3,4-dichlorophenyl)-4,5-dihydro-1H-pyrazol-4-yl]-N-ethyl-D-prolinamide] |
| 720 | 793 | CCN(C(=O)c1cccc(=O)[nH]1)C1CN(/C(=N\C#N)Nc2cccc(OC(F)F)c2)N=C1c1ccc(Cl)c(Cl)c1 (racemic) [Example 5, rac-N-[1-{N′-Cyano-N-[3-(difluoromethoxy)phenyl]carbamimidoyl}-3-(3,4-dichlorophenyl)-4,5-dihydro-1-pyrazol-4-yl]-N-ethyl-6-oxo-1,6-dihydropyridine-2-carboxamide] |
| 268 | 38.4 | CCN(C(=O)[C@H]1CCCN1)C1CN(/C(=N\C#N)Nc2cc(OC)ccc2Cl)N=C1c1ccc(Cl)c(Cl)c1 (mixture of isomers) [Example 32, N-{1-[N-(2-Chloro-5-methoxyphenyl)-N′-cyanocarbamimidoyl]-3-(3,4-dichlorophenyl)-4,5-dihydro-1H-pyrazol-4-yl}-N-ethyl-D-prolinamide] |
| 104 | 11.3 | C[C@]1(C(=O)NC2CN(/C(=N\C#N)Nc3cccc(OC(F)F)c3)N=C2c2ccc(Cl)c(Cl)c2)CCCN1 (mixture of isomers) [Example 6, N-[1-{N′-Cyano-N-[3-(difluoromethoxy)phenyl]carbamimidoyl}-3-(3,4-dichlorophenyl)-4,5-dihydro-1H-pyrazol-1-yl]-2-methyl-D-prolinamide] |
| 63.4 | 19.8 | CCN(C(=O)[C@H]1C[C@@H](O)CN1)C1CN(/C(=N\C#N)Nc2cccc(OC(F)F)c2)N=C1c1ccc(Cl)c(Cl)c1 (single isomer, unassigned) [Example 3.1] |
| 18.8 | 387 | CCN(C(=O)[C@H]1C[C@@H](F)CN1)C1CN(/C(=N\C#N)Nc2cccc(OC(F)F)c2)N=C1c1ccc(Cl)c(C)c1 (mixture of isomers) [Example 38, (4R)-N-[3-(4-Chloro-3-methylphenyl)-1-{N′-cyano-N-[3-(difluoromethoxy)phenyl]carbamimidoyl}-4,5-dihydro-1H-pyrazol-4-yl]-N-ethyl-4-fluoro-D-prolinamide] |
